Reference: patent publication US11505533B2, “Metabolically stable N-acylaminooxadiazoles useful as antibacterial agents” (MICROBIOTIX, INC., priority 2017, dated 2022)
≈ marks a conversion by molar mass, not a printed value.

Test system: not listed separately
Experiment: Mammalian cell cytotoxicity
Conditions: not given

Point of comparison: Cc1ccc(Oc2ccc(C(=O)Nc3nnc(-c4ccc(F)cc4)o3)cc2)cc1 [compound 4305], CC50 32 µM. Against it:
- Cc1cccc(Oc2ccc(C(=O)Nc3nnc(-c4ccc(F)cc4)o3)cc2)c1 [compound 4306] — higher, > 100 µM
- COC(=O)C1=CCN(C(=O)Nc2nnc(-c3ccc(F)cc3)o2)CC1 [compound 4348] — higher, > 100 µM
- CC(Oc1ccc(C(=O)Nc2nnc(-c3ccc(F)cc3)o2)cc1)c1ccccc1 (centres unmarked) [compound 4357] — within 1.5-fold, 45 µM
- O=C(Nc1nnc(-c2ccc(F)cc2)o1)N1CCN(c2ncccn2)CC1 [compound 4465] — higher, > 100 µM
- Cc1ccccc1-c1nnc(NC(=O)c2ccc(Oc3ccccc3)nc2)o1 [compound 4498] — higher, > 100 µM

Test system: not listed separately
Experiment: Aqueous solubility, nephelometry
Conditions: water, kinetic from dmso stock

Point of comparison: COC(=O)C1=CCN(C(=O)Nc2nnc(-c3ccc(F)cc3)o2)CC1 [compound 4348], solubility 25 µM (≈ 8.66 µg/mL). Against it:
- CC(C)(C)COc1ccc(C(=O)Nc2nnc(-c3ccc(F)cc3)o2)cc1 [compound 4284] — 8-fold lower, 3.12 µM (≈ 1.15 µg/mL)
- Cc1ccc(Oc2ccc(C(=O)Nc3nnc(-c4ccc(F)cc4)o3)cc2)cc1 [compound 4305] — 8-fold lower, 3.13 µM (≈ 1.22 µg/mL)
- Cc1cccc(Oc2ccc(C(=O)Nc3nnc(-c4ccc(F)cc4)o3)cc2)c1 [compound 4306] — 4-fold lower, 6.25 µM (≈ 2.43 µg/mL)
- CC(Oc1ccc(C(=O)Nc2nnc(-c3ccc(F)cc3)o2)cc1)c1ccccc1 (centres unmarked) [compound 4357] — 8.1-fold lower, 3.1 µM (≈ 1.25 µg/mL)
- O=C(Nc1nnc(-c2ccc(F)cc2)o1)N1CCN(c2ncccn2)CC1 [compound 4465] — 2-fold lower, 12.5 µM (≈ 4.62 µg/mL)

Test system: E. coli TolC(−)
Experiment: TolC(−) MIC (NB)
Assay type: cell-based
Conditions: Escherichia coli, read-out: TolC(−) MIC (μM)(NB)

Point of comparison: O=C(Nc1nnc(-c2ccc(F)cc2)o1)N1CCCC2CCCCC21 (centres unmarked) [compound 4200], MIC 50 µM (≈ 17.2 µg/mL). Against it:
- CC(=O)N1CCN(C(=O)Nc2nnc(-c3ccc(F)cc3)o2)CC1 [compound 4198] — higher, ≥ 100 µM
- O=C(Nc1nnc(-c2ccc(F)cc2)o1)N1CCN2CCCCC2C1 (centres unmarked) [compound 4199] — higher, ≥ 100 µM
- O=C(Nc1nnc(-c2ccc(F)cc2)o1)N1CCN(C(=O)c2ccco2)CC1 [compound 4201] — 1.8-fold lower, 28.1 µM (≈ 10.8 µg/mL)
- O=C(Nc1nnc(-c2ccc(F)cc2)o1)c1ccc(Oc2ccccc2)cn1 [compound 4258] — within 1.5-fold, 35.4 µM (≈ 13.3 µg/mL)
- CC(C)(C)COc1ccc(C(=O)Nc2nnc(-c3ccc(F)cc3)o2)cc1 [compound 4284] — within 1.5-fold, 70.7 µM (≈ 26.1 µg/mL)
- CC(C)(C)OC(=O)N1CCC(Oc2ccc(C(=O)Nc3nnc(-c4ccc(F)cc4)o3)cc2)CC1 [compound 4289] — 14-fold lower, 3.51 µM (≈ 1.69 µg/mL)
- Cc1cncc(Oc2ccc(C(=O)Nc3nnc(-c4ccc(F)cc4)o3)cc2)n1 [compound 4290] — 4.5-fold lower, 11.1 µM (≈ 4.36 µg/mL)
- Cc1ccc(Oc2ccc(C(=O)Nc3nnc(-c4ccc(F)cc4)o3)cc2)cc1 [compound 4305] — 64-fold lower, 0.781 µM (≈ 0.304 µg/mL)
- Cc1cccc(Oc2ccc(C(=O)Nc3nnc(-c4ccc(F)cc4)o3)cc2)c1 [compound 4306] — 51-fold lower, 0.984 µM (≈ 0.383 µg/mL)
- O=C(Nc1nnc(-c2ccc(F)cc2)o1)c1cnc(Oc2ccccc2)nc1 [compound 4314] — 8-fold lower, 6.25 µM (≈ 2.36 µg/mL)
- COc1cc2c(cc1OC)CN(C(=O)Nc1nnc(-c3ccc(F)cc3)o1)CC2 [compound 4333] — 4-fold lower, 12.5 µM (≈ 4.98 µg/mL)
- O=C(Nc1nnc(-c2ccc(F)cc2)o1)N1CCCC1 [compound 4346] — 2-fold higher, 100 µM (≈ 27.6 µg/mL)
- COC(=O)C1=CCN(C(=O)Nc2nnc(-c3ccc(F)cc3)o2)CC1 [compound 4348] — 4-fold lower, 12.5 µM (≈ 4.33 µg/mL)
- CN1CCCN(C(=O)Nc2nnc(-c3ccc(F)cc3)o2)CC1 [compound 4349] — higher, ≥ 100 µM
- O=C1CN(C(=O)Nc2nnc(-c3ccc(F)cc3)o2)CCN1 [compound 4350] — higher, ≥ 100 µM
- CN1CCN(C(=O)Nc2nnc(-c3ccc(F)cc3)o2)CC1=O [compound 4351] — higher, ≥ 100 µM
- CC(Oc1ccc(C(=O)Nc2nnc(-c3ccc(F)cc3)o2)cc1)c1ccccc1 (centres unmarked) [compound 4357] — 32-fold lower, 1.56 µM (≈ 0.63 µg/mL)
- O=C(Nc1nnc(-c2ccc(F)cc2)o1)N1CC2CC(C1)O2 [compound 4380] — higher, ≥ 100 µM
- O=C(Nc1nnc(-c2ccc(F)cc2)o1)N1CC2CCC(C1)O2 [compound 4381] — 2-fold higher, 100 µM (≈ 31.8 µg/mL)
- COCCN1[C@H](C)CN(C(=O)Nc2nnc(-c3ccc(F)cc3)o2)C[C@@H]1C [compound 4406] — the same, 50 µM (≈ 18.9 µg/mL)
- Cc1nc2c(s1)CN(C(=O)Nc1nnc(-c3ccc(F)cc3)o1)C2 [compound 4464] — higher, ≥ 100 µM
- O=C(Nc1nnc(-c2ccc(F)cc2)o1)N1CCN(c2ncccn2)CC1 [compound 4465] — 8-fold lower, 6.25 µM (≈ 2.31 µg/mL)
- Cc1nnc(NC(=O)c2ccc(Oc3ccccc3)nc2)o1 [compound 4468] — higher, ≥ 100 µM
- O=C(Nc1nnc(C2CCC2)o1)c1ccc(Oc2ccccc2)nc1 [compound 4469] — 4-fold lower, 12.5 µM (≈ 4.2 µg/mL)
- O=C(Nc1nnc(-c2ccc(F)cc2)o1)N1Cc2ncsc2C1 [compound 4497] — higher, ≥ 100 µM
- Cc1ccccc1-c1nnc(NC(=O)c2ccc(Oc3ccccc3)nc2)o1 [compound 4498] — 23-fold lower, 2.21 µM (≈ 0.823 µg/mL)
- CC1CCN(C(=O)Nc2nnc(-c3ccc(F)cc3)o2)CC1 [compound 4684] — 3.2-fold lower, 15.8 µM (≈ 4.79 µg/mL)
- CC1(C)CCN(C(=O)Nc2nnc(-c3ccc(F)cc3)o2)CC1 [compound 4685] — 4-fold lower, 12.5 µM (≈ 3.98 µg/mL)
- O=C(Nc1nnc(-c2ccc(F)cc2)o1)N1CCC(F)(F)CC1 [compound 4686] — 4-fold lower, 12.5 µM (≈ 4.08 µg/mL)
- O=C(Nc1nnc(-c2ccc(F)cc2)o1)N1CCOCC1 [compound 4697] — 2-fold higher, 100 µM (≈ 29.2 µg/mL)
- O=C(Nc1nnc(-c2ccc(F)cc2)o1)N1CCC2CCCCC2C1 (centres unmarked) [compound 4698] — 5.7-fold lower, 8.84 µM (≈ 3.04 µg/mL)
- O=C(Nc1nnc(-c2ccc(F)cc2)o1)N1CCCCC1 [compound 4699] — 2-fold lower, 25 µM (≈ 7.26 µg/mL)
- O=C(Nc1nnc(-c2ccc(F)cc2)o1)N1CCCCCC1 [compound 4700] — 3.2-fold lower, 15.8 µM (≈ 4.79 µg/mL)
- COC(=O)C1CCN(C(=O)Nc2nnc(-c3ccc(F)cc3)o2)CC1 [compound 4701] — the same, 50 µM (≈ 17.4 µg/mL)
- O=C(Nc1nnc(-c2ccc(F)cc2)o1)N1CCC(N2CCCCC2)CC1 [compound 4702] — higher, > 100 µM
- O=C(Nc1nnc(-c2ccc(F)cc2)o1)N1CCC(O)CC1 [compound 4734] — 2-fold higher, 100 µM (≈ 30.6 µg/mL)
- O=C(Nc1nnc(-c2ccc(F)cc2)o1)N1CCC(C(F)(F)F)C1 (centres unmarked) [compound 4735] — 2.2-fold lower, 22.3 µM (≈ 7.67 µg/mL)
- CC1=C(C)CN(C(=O)Nc2nnc(-c3ccc(F)cc3)o2)CC1 [compound 4738] — 7.1-fold lower, 7 µM (≈ 2.21 µg/mL)
- O=C(Nc1nnc(-c2ccc(F)cc2)o1)N1CCC2(CC1)COC2 [compound 4739] — 2-fold higher, 100 µM (≈ 33.2 µg/mL)
- O=C(Nc1nnc(-c2ccc(F)cc2)o1)N1CCC(C2COC2)CC1 [compound 4740] — 2-fold higher, 100 µM (≈ 34.6 µg/mL)
- O=C(Nc1nnc(-c2ccc(F)cc2)o1)N1CCC(Nc2ccccc2)CC1 [compound 4741] — 4.5-fold lower, 11.1 µM (≈ 4.23 µg/mL)

Test system: not listed separately
Experiment: Microsomal stability + NADPH
Conditions: mouse liver microsomes, 0.5 hr at 37° C.

In the case of Cc1ccc(Oc2ccc(C(=O)Nc3nnc(-c4ccc(F)cc4)o3)cc2)cc1 [compound 4305], the “Microsomal Stability + NADPH % degraded” value is reported as <30%.
For Cc1cccc(Oc2ccc(C(=O)Nc3nnc(-c4ccc(F)cc4)o3)cc2)c1 [compound 4306], the “Microsomal Stability + NADPH % degraded” value was <30%.
